Counter-ions that a name gives are not always drawn.
Each compound was assayed against T1, recombinant human c-MET kinase enzyme domain (Homo sapiens, UniProt P08581) (assay: c-MET receptor tyrosine kinase Homogeneous Time Resolved Fluorescence assay (HTRF)). Conditions: Biological Example 1 and/or Biological Example 2.
T1 construct: Recombinant c-Met kinase domain (amino acids 960-1390); His (N); made in house; host or cells: baculovirus expression system (insect cells; SF21 is named only for the alternative format)
T1 sequence (P08581 960-1390): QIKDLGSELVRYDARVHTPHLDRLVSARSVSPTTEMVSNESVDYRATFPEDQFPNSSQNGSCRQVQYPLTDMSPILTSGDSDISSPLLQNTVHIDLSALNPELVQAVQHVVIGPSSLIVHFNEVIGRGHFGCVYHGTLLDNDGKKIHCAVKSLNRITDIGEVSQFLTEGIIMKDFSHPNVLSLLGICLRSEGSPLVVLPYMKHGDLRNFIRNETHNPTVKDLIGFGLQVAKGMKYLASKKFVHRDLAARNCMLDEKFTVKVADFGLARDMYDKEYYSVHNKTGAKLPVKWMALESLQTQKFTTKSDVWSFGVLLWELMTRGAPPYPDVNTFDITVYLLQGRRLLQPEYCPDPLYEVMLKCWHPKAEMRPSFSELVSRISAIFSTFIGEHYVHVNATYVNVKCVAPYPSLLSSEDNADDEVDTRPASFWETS
Format: biochemical
Source text: Recombinant c-Met kinase domain (amino acids 960-1390) was produced in a baculovirus expression vector as an N-terminal His-tagged fusion protein and purified on a NiNTA column. The resulting purified enzyme was then used in the following c-Met Homogeneous Time Resolved Fluorescence assay (HTRF) to find compounds of the invention and to perform initial activity determinations. Specifically, this assay measures the ability of compounds of the invention to inhibit the phosphorylation of a randomly synthesized, biotinylated heterocopolymeric polypeptide composed of glutamic acid and tyrosine, with an average length of 100 aa. The assay analyzes the amount of phosphorylated polypeptide produced.
The enzymatic phosphorylation of the biotinylated heterocopolymeric polypeptide was performed in a black 384-well plate at ambient temperature in a reaction mixture containing 50 mM HEPES (pH 7.4), 5 mM MgCl2, 5 mM MnCl2, 0.01% Tween-20, and 2 mM DTT, […] recombinant human c-MET kinase enzyme domain, 37 nM biotinylated heterocopolymeric polypeptide composed of glutamic acid and tyrosine, 20 μM ATP, 1% DMSO in the absence or presence of a compound of the invention. The reaction was stopped after a 20-minute incubation by the addition of 80 mM EDTA.
The formation of phosphorylated heterocopolymeric, biotinylated polypeptide was quantified with the HTRF assay technology using an anti-phosphotyrosine antibody, PT66, conjugated to europium cryptate, mixed with a streptavidin-XL665 conjugate. Reduced or inhibited phosphorylation of the heterocopolymeric, biotinylated polypeptide prevents the anti-phosphotyrosine antibody from binding to the peptide, resulting in a loss of energy transfer to the streptavidin-XL665 conjugate.
Following the 384-well enzymatic phosphorylation reaction outlined above, the detection of phosphorylated heterocopolymeric, biotinylated polypeptide was performed by dilution of the stopped reaction mixture 2-fold with 50 mM HEPES (pH 7.0), 500 mM KF, 0.1% BSA, streptavidin-XL665 (20 nM), and anti-phosphotyrosine antibody PT66-crypate conjugate (6.4 ng/well) and incubation for four hours at ambient temperature. Plates were read in an Envision plate reader (PerkinElmer Life and Analytical Sciences, Inc., MA) simultaneously at 620 nm and 665 nm to obtain signal ratios of 665 nm/620 nm. Results of energy transfer were expressed as signal ratios of 665 nm/620 nm. Negative controls were samples without recombinant c-MET or c-MET treated with 100 mM EDTA.
For determination of IC50 values of particular compounds of the invention, eight serially diluted compound concentrations (at 1:3.16 dilution) were used in the assay. Controls without a compound of the invention or with a reference compound were run in parallel in the same assay plate.

IC50 | SMILES
< 100 nM | CC1=C(C#N)C(c2ccc3c(c2)c(NCCO)nn3C(=O)OC(C)(C)C)C(C#N)=C(C)N1 [compound 119, 5-(3,5-dicyano-1,4-dihydro-2,6-dimethyl-4-pyridinyl)-3-[(2-hydroxyethyl)-amino]-1H-indazole-1-carboxylic acid, 1,1-dimethylethyl ester]
< 100 nM | CC1=C(C#N)C(c2ccc3[nH]nc(-c4nc5ccccc5[nH]4)c3c2)C(C#N)=C(C)N1 [compound 142, 4-[3-(1H-benzimidazol-2-yl)-1H-indazol-5-yl]-1,4-dihydro-2,6-dimethyl-3,5-pyridinedicarbonitrile]
500 to 2500 nM | CNC(=O)c1cccc(C2C(C#N)=C(C)NC(C)=C2C#N)n1 [compound 189, 3′,5′-dicyano-1′,4′-dihydro-N,2′,6′-trimethyl-[2,4′-bipyridine]-6-carboxamide]
< 100 nM | CC1=C(C#N)C(c2ccc3[nH]ncc3c2)C(C#N)=C(c2ccc(NCCN(C)C)nc2)N1 (stereo not shown) [compound 275]
< 100 nM | CC1=C(C#N)C(c2ccc3[nH]nc(C(=O)NCCC4CCCN4C)c3c2)C(C#N)=C(C)N1 (stereo not shown) [compound 125, 5-(3,5-dicyano-1,4-dihydro-2,6-dimethyl-4-pyridinyl)-N-[2-(1-methyl-2-pyrrolidinyl)ethyl]-1H-indazole-3-carboxamide]
< 100 nM | CC1=C(C#N)C(c2ccc3[nH]ncc3c2)C(C#N)=C(c2ccncc2)N1 (stereo not shown) [compound 265, 1,4-dihydro-4-(1H-indazol-5-yl)-6-methyl-[2,4′-bipyridine]-3,5-dicarbonitrile]
100 to 500 nM | CC1=C(C#N)C(c2cccc(C(=O)Nc3cccc(N)n3)c2)C(C#N)=C(C)N1 [compound 68, N-(6-amino-2-pyridinyl)-3-(3,5-dicyano-1,4-dihydro-2,6-dimethyl-4-pyridinyl)-benzamide]
500 to 2500 nM | CCN(CC)CC(=O)Nc1n[nH]c2ccc(C3C(C#N)=C(C)NC(C)=C3C#N)cc12 [compound 141, N-[5-(3,5-dicyano-1,4-dihydro-2,6-dimethyl-4-pyridinyl)-1H-indazol-3-yl]-2-(diethylamino)-acetamide]
< 100 nM | CC1=C(C#N)C(c2ccc3[nH]nc(NCCN)c3c2)C(C#N)=C(C)N1 [compound 308, 4-[3-[(2-aminoethyl)amino]-1H-indazol-5-yl]-1,4-dihydro-2,6-dimethyl-3,5-pyridinedicarbonitrile]
< 100 nM | CC1=C(C#N)C(c2ccc3[nH]nc(N)c3c2)C(C#N)=C(C)N1C [compound 288, 4-(3-amino-1H-indazol-5-yl)-1,4-dihydro-1,2,6-trimethyl-3,5-pyridinedicarbonitrile]
< 100 nM | CC1=C(C#N)C(c2ccc3[nH]nc(-c4ccon4)c3c2)C(C#N)=C(C)N1 [compound 175, 1,4-dihydro-4-[3-(3-isoxazolyl)-1H-indazol-5-yl]-2,6-dimethyl-3,5-pyridinedicarbonitrile]
< 100 nM | CC1=C(C#N)C(c2ccc3[nH]nc(NCc4ccc(C(=O)O)cc4)c3c2)C(C#N)=C(C)N1 [compound 136, 4-[[[5-(3,5-dicyano-1,4-dihydro-2,6-dimethyl-4-pyridinyl)-1H-indazol-3-yl]-amino]methyl]-benzoic acid]
500 to 2500 nM | CC1=C(C#N)C(c2cccc(NC(=O)c3cccnc3)c2)C(C#N)=C(C)N1 [compound 38, N-[3-(3,5-dicyano-1,4-dihydro-2,6-dimethyl-4-pyridinyl)phenyl]-3-pyridinecarboxamide]
< 100 nM | CNC(=O)Nc1n[nH]c2ccc(C3C(C#N)=C(C)NC(C)=C3C#N)cc12 [compound 147, N-[5-(3,5-dicyano-1,4-dihydro-2,6-dimethyl-4-pyridinyl)-1H-indazol-3-yl]-N′-methyl-urea]
100 to 500 nM | CC1=C(C#N)C(c2cccc(C(=O)NCCCn3ccnc3)c2)C(C#N)=C(C)N1 [compound 32, 3-(3,5-dicyano-1,4-dihydro-2,6-dimethyl-4-pyridinyl)-N-[3-(1H-imidazol-1-yl)propyl]-benzamide]
< 100 nM | CC1=C(C#N)C(c2ccc3[nH]nc(C(=O)NCCN4CCCC4)c3c2)C(C#N)=C(C)N1 [compound 124, 5-(3,5-dicyano-1,4-dihydro-2,6-dimethyl-4-pyridinyl)-N-[2-(1-pyrrolidinyl)ethyl]-1H-indazole-3-carboxamide]

IC50 | SMILES
500 to 2500 nM | CC1=C(C#N)C(c2ccc3[nH]nc(CN4CCOCC4)c3c2)C(C#N)=C(C)N1 [compound 83, 1,4-dihydro-2,6-dimethyl-4-[3-(4-morpholinylmethyl)-1H-indazol-5-yl]-3,5-pyridinedicarbonitrile]
100 to 500 nM | CNC(=O)c1cccc(C2C(C#N)=C(C)NC(C)=C2C#N)c1 [compound 22, 3-(3,5-dicyano-1,4-dihydro-2,6-dimethyl-4-pyridinyl)-N-methyl-benzamide]
100 to 500 nM | CC1=C(C#N)C(c2cccc(NC(=O)c3cnc[nH]3)c2)C(C#N)=C(C)N1 [compound 66, N-[3-(3,5-dicyano-1,4-dihydro-2,6-dimethyl-4-pyridinyl)phenyl]-1H-imidazole-5-carboxamide]
100 to 500 nM | CC1=C(C#N)C(c2cccc(C(=O)NCCCn3ccnc3)n2)C(C#N)=C(C)N1 [compound 191, 3′,5′-dicyano-1′,4′-dihydro-N-[3-(1H-imidazol-1-yl)propyl]-2′,6′-dimethyl-[2,4′-bipyridine]-6-carboxamide]
< 100 nM | CC1=C(C#N)C(c2ccc3[nH]nc(C(=O)NCCN(C)C)c3c2)C(C#N)=C(C)N1 [103.1, 5-(3,5-dicyano-1,4-dihydro-2,6-dimethyl-4-pyridinyl)-N-[2-(dimethylamino)-ethyl]-1H-indazole-3-carboxamide, TFA salt]
100 to 500 nM | CC1=C(C#N)C(c2cccc(C(=O)NCCCn3ccnc3)c2)C(C#N)=C(c2cccc(N)c2)N1 (stereo not shown) [compound 246, 3-[2-(3-aminophenyl)-3,5-dicyano-1,4-dihydro-6-methyl-4-pyridinyl]-N-[3-(1H-imidazol-1-yl)propyl]-benzamide]
< 100 nM | CC1=C(C#N)C(c2ccc3[nH]nc(NCc4ccc(N)cc4)c3c2)C(C#N)=C(C)N1 [compound 128, 4-[3-[[(4-aminophenyl)methyl]amino]-1H-indazol-5-yl]-1,4-dihydro-2,6-dimethyl-3,5-pyridinedicarbonitrile]
< 100 nM | CC1=C(C#N)C(c2ccc3[nH]nc(N)c3c2)C(C#N)=C(C)N1CCO [compound 299, 4-(3-amino-1H-indazol-5-yl)-1,4-dihydro-1-(2-hydroxyethyl)-2,6-dimethyl-3,5-pyridinedicarbonitrile]
< 100 nM | CC1=C(C#N)C(c2ccc3[nH]nc(C)c3c2)C(C#N)=C(C)N1C1CC1 [compound 301, 1-cyclopropyl-1,4-dihydro-2,6-dimethyl-4-(3-methyl-1H-indazol-5-yl)-3,5-pyridinedicarbonitrile]
500 to 2500 nM | CC1=C(C#N)C(c2ccc3[nH]nc(NCc4ccc([N+](=O)[O-])cc4)c3c2)C(C#N)=C(C)N1 [compound 127, 1,4-dihydro-2,6-dimethyl-4-[3-[[(4-nitrophenyl)methyl]amino]-1H-indazol-5-yl]-3,5-pyridinedicarbonitrile]
< 100 nM | CCOC(=O)CN1C(C)=C(C#N)C(c2ccc3[nH]ncc3c2)C(C#N)=C1C [compound 290, 3,5-dicyano-4-(1H-indazol-5-yl)-2,6-dimethyl-1(4H)-pyridineacetic acid ethyl ester]
< 100 nM | CC1=C(C#N)C(c2ccc3[nH]nc(C=O)c3c2)C(C#N)=C(C)N1 [compound 145, 4-(3-formyl-1H-indazol-5-yl)-1,4-dihydro-2,6-dimethyl-3,5-pyridinedicarbonitrile]
500 to 2500 nM | CC1=C(C#N)C(c2ccc3[nH]ncc3c2)C(C#N)=C(C2CCCN(C(=O)OCc3ccccc3)C2)N1 (stereo not shown) [compound 251, 3-[3,5-dicyano-1,4-dihydro-4-(1H-indazol-5-yl)-6-methyl-2-pyridinyl]-1-piperidinecarboxylic acid phenylmethyl ester]
500 to 2500 nM | CNC(=O)c1cccc(C2C(C#N)=C(C)NC(c3ccccc3)=C2C#N)c1 (stereo not shown) [compound 240, 3-(3,5-dicyano-1,4-dihydro-2-methyl-6-phenyl-4-pyridinyl)-N-methyl-benzamide]
< 100 nM | CC1=C(C#N)C(c2ccc3[nH]nc(-c4cnn(C)c4)c3c2)C(C#N)=C(C)N1 [compound 174, 1,4-dihydro-2,6-dimethyl-4-[3-(1-methyl-1H-pyrazol-4-yl)-1H-indazol-5-yl]-3,5-pyridinedicarbonitrile]
